Source: article PMC6149898, “GPCR Modulation of Thieno[2,3-b]pyridine Anti-Proliferative Agents” (Molecules : A Journal of Synthetic Chemistry and Natural …, 2017)

Experiments:
LTB4R = LTB4R (Homo sapiens, UniProt Q15722); assay: gpcrMAX PathHunter beta-arrestin
CXCR2 = CXCR2 (Homo sapiens, UniProt P25025); assay: gpcrMAX PathHunter beta-arrestin
TSHR(L) = TSHR(L) (Homo sapiens, UniProt P16473); assay: gpcrMAX PathHunter beta-arrestin
DRD2S = DRD2S (Homo sapiens, UniProt P14416); assay: gpcrMAX PathHunter beta-arrestin
P2RY12 = P2RY12 (Homo sapiens, UniProt Q9H244); assay: gpcrMAX PathHunter beta-arrestin
PROKR1 = PROKR1 (Homo sapiens, UniProt Q8TCW9); assay: gpcrMAX PathHunter beta-arrestin
CHRM1 = CHRM1 (Homo sapiens, UniProt P11229); assay: gpcrMAX PathHunter beta-arrestin
EDG3 = EDG3 (Homo sapiens, UniProt Q99500); assay: gpcrMAX PathHunter beta-arrestin
RE:ACHN = system: RE:ACHN; parameters: method as in earlier work; conditions: NCI-60 panel; ref [4],[5],[6],[7]; cited from earlier work
GPR103 = GPR103 (Homo sapiens, UniProt Q96P65); assay: gpcrMAX PathHunter beta-arrestin
HTR1E = HTR1E (Homo sapiens, UniProt P28566); assay: gpcrMAX PathHunter beta-arrestin
LC:NCI-H226 = system: LC:NCI-H226; parameters: method as in earlier work; conditions: NCI-60 panel; ref [4],[5],[6],[7]; cited from earlier work
NPY1R = NPY1R (Homo sapiens, UniProt P25929); assay: gpcrMAX PathHunter beta-arrestin
VIPR1 = VIPR1 (Homo sapiens, UniProt P32241); assay: gpcrMAX PathHunter beta-arrestin
TACR3 = TACR3 (Homo sapiens, UniProt P29371); assay: gpcrMAX PathHunter beta-arrestin
CNR1 = CNR1 (Homo sapiens, UniProt P21554); assay: gpcrMAX PathHunter beta-arrestin
FSHR = FSHR (Homo sapiens, UniProt P23945); assay: gpcrMAX PathHunter beta-arrestin
MTNR1A = MTNR1A (Homo sapiens, UniProt P48039); assay: gpcrMAX PathHunter beta-arrestin
AGTR1 = AGTR1 (Homo sapiens, UniProt P30556); assay: gpcrMAX PathHunter beta-arrestin
PR:PC-3 = system: PR:PC-3; parameters: method as in earlier work; conditions: NCI-60 panel; ref [4],[5],[6],[7]; cited from earlier work
MC3R = MC3R (Homo sapiens, UniProt P41968); assay: gpcrMAX PathHunter beta-arrestin
EDNRB = EDNRB (Homo sapiens, UniProt P24530); assay: gpcrMAX PathHunter beta-arrestin
OPRM1 = OPRM1 (Homo sapiens, UniProt P35372); assay: gpcrMAX PathHunter beta-arrestin
EDG7 = EDG7 (Homo sapiens, UniProt Q9UBY5); assay: gpcrMAX PathHunter beta-arrestin
RXFP3 = RXFP3 (Homo sapiens, UniProt Q9NSD7); assay: gpcrMAX PathHunter beta-arrestin
CXCR5 = CXCR5 (Homo sapiens, UniProt P32302); assay: gpcrMAX PathHunter beta-arrestin
CHRM2 = CHRM2 (Homo sapiens, UniProt P08172); assay: gpcrMAX PathHunter beta-arrestin
OXER1 = OXER1 (Homo sapiens, UniProt Q8TDS5); assay: gpcrMAX PathHunter beta-arrestin
CCKBR = CCKBR (Homo sapiens, UniProt P32239); assay: gpcrMAX PathHunter beta-arrestin
CCR7 = CCR7 (Homo sapiens, UniProt P32248); assay: gpcrMAX PathHunter beta-arrestin
DRD4 = DRD4 (Homo sapiens, UniProt P21917); assay: gpcrMAX PathHunter beta-arrestin
CO:HCT-116 = system: CO:HCT-116; parameters: method as in earlier work; conditions: NCI-60 panel; ref [4],[5],[6],[7]; cited from earlier work
CXCR7 = CXCR7 (Homo sapiens, UniProt P25106); assay: gpcrMAX PathHunter beta-arrestin
CCR2 = CCR2 (Homo sapiens, UniProt P41597); assay: gpcrMAX PathHunter beta-arrestin
F2RL1 = F2RL1 (Homo sapiens, UniProt P55085); assay: gpcrMAX PathHunter beta-arrestin
DRD5 = DRD5 (Homo sapiens, UniProt P21918); assay: gpcrMAX PathHunter beta-arrestin
RE:UO-31 = system: RE:UO-31; parameters: method as in earlier work; conditions: NCI-60 panel; ref [4],[5],[6],[7]; cited from earlier work
GLP1R = GLP1R (Homo sapiens, UniProt P43220); assay: gpcrMAX PathHunter beta-arrestin
BR:HS 578T = system: BR:HS 578T; parameters: method as in earlier work; conditions: NCI-60 panel; ref [4],[5],[6],[7]; cited from earlier work
C5L2 = C5L2 (Homo sapiens, UniProt Q9P296); assay: gpcrMAX PathHunter beta-arrestin
Sequence of C5L2 (Q9P296 whole entry): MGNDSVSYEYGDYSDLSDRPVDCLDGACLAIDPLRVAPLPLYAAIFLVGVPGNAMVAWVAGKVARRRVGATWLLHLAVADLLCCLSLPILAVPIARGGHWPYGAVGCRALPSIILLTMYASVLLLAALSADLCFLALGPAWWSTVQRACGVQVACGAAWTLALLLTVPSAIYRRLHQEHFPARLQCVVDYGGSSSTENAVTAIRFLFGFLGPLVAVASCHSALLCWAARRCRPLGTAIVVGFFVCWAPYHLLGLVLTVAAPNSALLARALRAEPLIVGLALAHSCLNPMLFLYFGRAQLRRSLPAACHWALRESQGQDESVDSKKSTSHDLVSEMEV

Sequence of P2RY12 (Q9H244 whole entry, one chain of several): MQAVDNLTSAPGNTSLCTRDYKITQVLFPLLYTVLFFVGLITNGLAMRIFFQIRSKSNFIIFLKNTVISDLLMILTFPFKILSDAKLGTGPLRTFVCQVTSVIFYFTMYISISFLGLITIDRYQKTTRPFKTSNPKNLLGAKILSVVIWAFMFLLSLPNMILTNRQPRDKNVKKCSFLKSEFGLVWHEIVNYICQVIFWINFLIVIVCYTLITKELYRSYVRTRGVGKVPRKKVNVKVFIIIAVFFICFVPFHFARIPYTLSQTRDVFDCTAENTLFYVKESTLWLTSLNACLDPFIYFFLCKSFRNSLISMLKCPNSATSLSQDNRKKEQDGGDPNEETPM
Sequence of AGTR1 (P30556 whole entry): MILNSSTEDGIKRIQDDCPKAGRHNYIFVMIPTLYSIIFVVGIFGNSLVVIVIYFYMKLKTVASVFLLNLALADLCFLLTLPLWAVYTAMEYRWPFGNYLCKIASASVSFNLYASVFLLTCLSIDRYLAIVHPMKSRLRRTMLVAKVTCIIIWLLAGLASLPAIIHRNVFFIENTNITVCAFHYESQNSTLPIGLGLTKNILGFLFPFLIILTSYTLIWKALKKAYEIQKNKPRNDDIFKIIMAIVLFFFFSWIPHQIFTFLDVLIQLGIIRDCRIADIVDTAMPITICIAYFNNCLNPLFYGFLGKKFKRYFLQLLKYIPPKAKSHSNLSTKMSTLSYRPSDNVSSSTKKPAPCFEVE
Sequence of PROKR1 (Q8TCW9 whole entry): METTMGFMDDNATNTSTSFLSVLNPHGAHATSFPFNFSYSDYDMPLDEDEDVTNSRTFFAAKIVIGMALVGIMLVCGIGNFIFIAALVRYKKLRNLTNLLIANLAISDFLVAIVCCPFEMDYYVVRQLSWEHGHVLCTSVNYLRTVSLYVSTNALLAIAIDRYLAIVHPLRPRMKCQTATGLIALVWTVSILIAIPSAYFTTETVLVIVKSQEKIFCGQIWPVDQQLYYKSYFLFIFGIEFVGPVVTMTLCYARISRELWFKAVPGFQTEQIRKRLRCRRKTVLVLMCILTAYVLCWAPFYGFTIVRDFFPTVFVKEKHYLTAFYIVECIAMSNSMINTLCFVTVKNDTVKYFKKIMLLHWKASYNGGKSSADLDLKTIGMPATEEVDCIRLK
Sequence of FSHR (P23945 18-695): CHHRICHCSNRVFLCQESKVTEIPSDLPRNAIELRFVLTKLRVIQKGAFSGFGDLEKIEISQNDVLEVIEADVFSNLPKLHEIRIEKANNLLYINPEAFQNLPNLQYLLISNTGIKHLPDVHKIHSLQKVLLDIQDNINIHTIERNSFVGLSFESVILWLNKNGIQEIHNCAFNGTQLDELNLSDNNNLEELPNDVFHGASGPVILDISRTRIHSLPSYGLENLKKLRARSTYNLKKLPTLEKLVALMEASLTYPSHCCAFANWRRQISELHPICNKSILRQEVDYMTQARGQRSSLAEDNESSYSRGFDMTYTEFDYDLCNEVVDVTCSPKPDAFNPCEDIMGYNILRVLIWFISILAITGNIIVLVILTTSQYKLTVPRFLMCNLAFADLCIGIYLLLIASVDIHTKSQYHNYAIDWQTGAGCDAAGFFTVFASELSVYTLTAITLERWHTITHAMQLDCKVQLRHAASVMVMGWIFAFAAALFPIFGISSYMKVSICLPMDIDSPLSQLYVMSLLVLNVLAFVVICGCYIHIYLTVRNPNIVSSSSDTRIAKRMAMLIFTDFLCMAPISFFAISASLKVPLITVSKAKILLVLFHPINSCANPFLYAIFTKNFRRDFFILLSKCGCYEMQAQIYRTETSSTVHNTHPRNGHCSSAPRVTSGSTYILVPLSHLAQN
Sequence of CHRM1 (P11229 whole entry): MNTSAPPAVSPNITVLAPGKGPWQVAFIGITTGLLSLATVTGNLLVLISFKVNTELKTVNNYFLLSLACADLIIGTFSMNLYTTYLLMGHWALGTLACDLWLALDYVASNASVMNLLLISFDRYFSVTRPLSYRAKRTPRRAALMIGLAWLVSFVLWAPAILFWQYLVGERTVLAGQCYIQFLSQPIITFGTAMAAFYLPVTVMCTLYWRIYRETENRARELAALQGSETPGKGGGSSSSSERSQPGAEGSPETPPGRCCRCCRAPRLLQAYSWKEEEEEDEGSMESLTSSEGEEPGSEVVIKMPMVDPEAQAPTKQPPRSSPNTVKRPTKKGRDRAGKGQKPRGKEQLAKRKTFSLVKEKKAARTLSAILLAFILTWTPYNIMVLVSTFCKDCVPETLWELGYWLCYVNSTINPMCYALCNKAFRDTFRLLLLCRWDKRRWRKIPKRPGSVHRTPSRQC
Sequence of CHRM2 (P08172 whole entry): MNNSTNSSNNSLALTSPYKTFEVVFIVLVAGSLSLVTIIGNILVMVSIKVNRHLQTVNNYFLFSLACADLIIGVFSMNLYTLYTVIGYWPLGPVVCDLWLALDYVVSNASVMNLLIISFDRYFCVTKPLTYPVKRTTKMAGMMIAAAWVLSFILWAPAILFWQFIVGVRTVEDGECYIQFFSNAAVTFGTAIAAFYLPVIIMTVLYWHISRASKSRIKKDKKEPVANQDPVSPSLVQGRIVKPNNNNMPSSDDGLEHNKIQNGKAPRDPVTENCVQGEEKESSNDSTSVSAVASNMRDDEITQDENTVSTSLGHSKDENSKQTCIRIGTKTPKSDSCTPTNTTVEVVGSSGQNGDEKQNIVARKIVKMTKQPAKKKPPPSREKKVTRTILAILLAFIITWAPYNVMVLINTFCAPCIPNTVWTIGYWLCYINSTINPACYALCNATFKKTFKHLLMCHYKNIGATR
Sequence of OXER1 (Q8TDS5 whole entry): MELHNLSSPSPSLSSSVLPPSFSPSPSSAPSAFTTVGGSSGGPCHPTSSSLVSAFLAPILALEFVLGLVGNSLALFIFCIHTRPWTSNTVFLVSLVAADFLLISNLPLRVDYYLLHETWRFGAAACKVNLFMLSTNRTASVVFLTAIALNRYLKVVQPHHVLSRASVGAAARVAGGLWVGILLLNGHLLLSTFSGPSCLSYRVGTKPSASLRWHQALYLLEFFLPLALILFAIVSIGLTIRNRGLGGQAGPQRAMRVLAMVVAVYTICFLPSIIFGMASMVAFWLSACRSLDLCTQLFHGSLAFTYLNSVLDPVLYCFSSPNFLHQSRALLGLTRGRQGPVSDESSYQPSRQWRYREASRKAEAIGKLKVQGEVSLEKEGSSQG
Sequence of GPR103 (Q96P65 whole entry): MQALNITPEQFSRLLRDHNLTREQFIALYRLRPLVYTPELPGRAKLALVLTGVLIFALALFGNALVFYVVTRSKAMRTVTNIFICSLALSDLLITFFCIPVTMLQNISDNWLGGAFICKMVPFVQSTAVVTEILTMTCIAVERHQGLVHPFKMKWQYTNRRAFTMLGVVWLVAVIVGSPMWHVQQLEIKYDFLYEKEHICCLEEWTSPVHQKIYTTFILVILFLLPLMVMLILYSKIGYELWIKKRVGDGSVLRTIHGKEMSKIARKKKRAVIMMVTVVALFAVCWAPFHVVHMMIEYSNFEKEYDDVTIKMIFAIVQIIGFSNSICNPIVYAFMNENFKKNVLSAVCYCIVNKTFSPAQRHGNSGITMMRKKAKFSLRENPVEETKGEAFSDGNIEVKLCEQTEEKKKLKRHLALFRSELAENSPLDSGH
Sequence of CCR2 (P41597 whole entry): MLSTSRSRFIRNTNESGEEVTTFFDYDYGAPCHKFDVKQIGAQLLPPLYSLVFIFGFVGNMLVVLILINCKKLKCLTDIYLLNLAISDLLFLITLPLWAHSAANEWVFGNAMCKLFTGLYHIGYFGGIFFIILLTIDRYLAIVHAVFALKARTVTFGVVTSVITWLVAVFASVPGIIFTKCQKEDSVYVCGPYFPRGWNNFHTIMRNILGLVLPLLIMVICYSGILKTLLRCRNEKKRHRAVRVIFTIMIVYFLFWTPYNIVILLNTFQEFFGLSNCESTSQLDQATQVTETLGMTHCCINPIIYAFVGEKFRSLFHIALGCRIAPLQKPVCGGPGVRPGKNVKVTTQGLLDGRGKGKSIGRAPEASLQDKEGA
Sequence of TSHR(L) (P16473 21-764): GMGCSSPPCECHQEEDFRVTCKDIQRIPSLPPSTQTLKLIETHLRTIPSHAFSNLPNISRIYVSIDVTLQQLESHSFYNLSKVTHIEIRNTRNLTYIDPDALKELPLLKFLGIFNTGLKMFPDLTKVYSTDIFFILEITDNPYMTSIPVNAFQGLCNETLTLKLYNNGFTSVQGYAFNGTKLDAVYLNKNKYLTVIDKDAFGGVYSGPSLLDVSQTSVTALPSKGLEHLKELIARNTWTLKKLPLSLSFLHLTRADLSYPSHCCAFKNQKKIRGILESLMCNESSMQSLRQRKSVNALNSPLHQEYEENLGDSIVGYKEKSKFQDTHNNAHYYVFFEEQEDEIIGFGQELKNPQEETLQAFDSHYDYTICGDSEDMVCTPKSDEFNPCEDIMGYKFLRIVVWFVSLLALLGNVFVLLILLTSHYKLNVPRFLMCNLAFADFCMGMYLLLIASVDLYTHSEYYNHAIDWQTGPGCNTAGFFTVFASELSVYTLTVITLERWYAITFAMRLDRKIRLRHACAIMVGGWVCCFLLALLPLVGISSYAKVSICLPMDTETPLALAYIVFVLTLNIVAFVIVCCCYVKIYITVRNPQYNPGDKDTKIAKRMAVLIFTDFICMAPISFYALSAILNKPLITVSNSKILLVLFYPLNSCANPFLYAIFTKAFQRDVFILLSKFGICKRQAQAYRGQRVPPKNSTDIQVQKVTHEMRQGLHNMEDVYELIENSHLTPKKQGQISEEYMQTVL

Q: Which inhibition at 10 µM (LTB4R) does the source give for Cc1c(Cl)cccc1NC(=O)c1sc2nc3c(cc2c1N)C(=O)CCC3 [Compound 1] here?
A: Its inhibition at 10 µM is 4%.

Q: And the inhibition at 10 µM (CXCR2)?
A: Its inhibition at 10 µM is 33%.

Q: What about the inhibition at 10 µM (TSHR(L)) of the same compound?
A: The inhibition at 10 µM was -24%.

Q: What about the inhibition at 10 µM (DRD2S) of the same compound?
A: The inhibition at 10 µM was -6%.

Q: And the inhibition at 10 µM (P2RY12)?
A: Its inhibition at 10 µM is -25%.

Q: What about the “% Inhibition” value (P2RY12; antagonist mode, 10 µM) of the same compound?
A: The value was “no antagonist modulation was observed”.

Q: And the inhibition at 10 µM (PROKR1)?
A: The inhibition at 10 µM was 6%.

Q: And the inhibition at 10 µM (CHRM1)?
A: The inhibition at 10 µM was 0%.

Q: And the inhibition at 10 µM (EDG3)?
A: Its inhibition at 10 µM is -2%.

Q: And the GI50 (RE:ACHN)?
A: Its GI50 is 83.7 nM.

Q: And the inhibition at 10 µM (GPR103)?
A: Its inhibition at 10 µM is -5%.

Q: What about the inhibition at 10 µM (HTR1E) of the same compound?
A: Its inhibition at 10 µM is 19%.

Q: And the GI50 (LC:NCI-H226)?
A: The GI50 was 102 nM.

Q: And the inhibition at 10 µM (NPY1R)?
A: Its inhibition at 10 µM is 11%.

Q: And the inhibition at 10 µM (VIPR1)?
A: The inhibition at 10 µM was 7%.

Q: And the inhibition at 10 µM (TACR3)?
A: Its inhibition at 10 µM is 5%.

Q: What about the inhibition at 10 µM (CNR1) of the same compound?
A: Its inhibition at 10 µM is 23%.

Q: And the inhibition at 10 µM (FSHR)?
A: Its inhibition at 10 µM is 30%.

Q: What about the inhibition at 10 µM (MTNR1A) of the same compound?
A: The inhibition at 10 µM was -15%.

Q: What about the inhibition at 10 µM (AGTR1) of the same compound?
A: Its inhibition at 10 µM is 7%.

Q: What about the GI50 (PR:PC-3) of the same compound?
A: Its GI50 is 53.5 nM.

Q: What about the inhibition at 10 µM (MC3R) of the same compound?
A: The inhibition at 10 µM was 2%.

Q: And the inhibition at 10 µM (EDNRB)?
A: The inhibition at 10 µM was 0%.

Q: What about the inhibition at 10 µM (OPRM1) of the same compound?
A: Its inhibition at 10 µM is -18%.

Q: What about the inhibition at 10 µM (EDG7) of the same compound?
A: The inhibition at 10 µM was -8%.

Q: And the inhibition at 10 µM (RXFP3)?
A: Its inhibition at 10 µM is -27%.

Q: And the inhibition at 10 µM (CXCR5)?
A: The inhibition at 10 µM was 0%.

Q: What about the inhibition at 10 µM (CHRM2) of the same compound?
A: The inhibition at 10 µM was -14%.

Q: And the inhibition at 10 µM (OXER1)?
A: The inhibition at 10 µM was -1%.

Q: What about the inhibition at 10 µM (CCKBR) of the same compound?
A: The inhibition at 10 µM was 12%.

Q: What about the inhibition at 10 µM (CCR7) of the same compound?
A: Its inhibition at 10 µM is 34%.

Q: What about the inhibition at 10 µM (DRD4) of the same compound?
A: Its inhibition at 10 µM is -7%.

Q: What about the GI50 (CO:HCT-116) of the same compound?
A: Its GI50 is 66.8 nM.

Q: What about the inhibition at 10 µM (CXCR7) of the same compound?
A: Its inhibition at 10 µM is -15%.

Q: What about the inhibition at 10 µM (CCR2) of the same compound?
A: Its inhibition at 10 µM is -8%.

Q: What about the inhibition at 10 µM (F2RL1) of the same compound?
A: The inhibition at 10 µM was 11%.

Q: And the inhibition at 10 µM (DRD5)?
A: The inhibition at 10 µM was -31%.

Q: And the GI50 (RE:UO-31)?
A: Its GI50 is 73.1 nM.

Q: What about the inhibition at 10 µM (GLP1R) of the same compound?
A: Its inhibition at 10 µM is -1%.

Q: What about the GI50 (BR:HS 578T) of the same compound?
A: The GI50 was 48.2 nM.

Q: What about the inhibition at 10 µM (C5L2) of the same compound?
A: The inhibition at 10 µM was -20%.
